Results taken from patent US8394641B2, “Method of hydrolyzing an enzymatic substrate” (Advanced Liquid Logic Inc., priority 2009, dated 2013).

Assays:
Krabbe assay = target: T1, Krabbe assay (Homo sapiens, UniProt P54803); assay: Krabbe assay on bench, substrate hydrolysis with cyclodextrins, QC DBS extracts; format: biochemical; settings: data not shown
T1 construct: DBS extracts were prepared from quality control (QC) dried blood spot samples; tissue CDC, Atlanta Ga; host or cells: dried blood spot extracts (pooled cord blood / leukoreduced red cells plus serum)
T1 sequence (P54803 43-685): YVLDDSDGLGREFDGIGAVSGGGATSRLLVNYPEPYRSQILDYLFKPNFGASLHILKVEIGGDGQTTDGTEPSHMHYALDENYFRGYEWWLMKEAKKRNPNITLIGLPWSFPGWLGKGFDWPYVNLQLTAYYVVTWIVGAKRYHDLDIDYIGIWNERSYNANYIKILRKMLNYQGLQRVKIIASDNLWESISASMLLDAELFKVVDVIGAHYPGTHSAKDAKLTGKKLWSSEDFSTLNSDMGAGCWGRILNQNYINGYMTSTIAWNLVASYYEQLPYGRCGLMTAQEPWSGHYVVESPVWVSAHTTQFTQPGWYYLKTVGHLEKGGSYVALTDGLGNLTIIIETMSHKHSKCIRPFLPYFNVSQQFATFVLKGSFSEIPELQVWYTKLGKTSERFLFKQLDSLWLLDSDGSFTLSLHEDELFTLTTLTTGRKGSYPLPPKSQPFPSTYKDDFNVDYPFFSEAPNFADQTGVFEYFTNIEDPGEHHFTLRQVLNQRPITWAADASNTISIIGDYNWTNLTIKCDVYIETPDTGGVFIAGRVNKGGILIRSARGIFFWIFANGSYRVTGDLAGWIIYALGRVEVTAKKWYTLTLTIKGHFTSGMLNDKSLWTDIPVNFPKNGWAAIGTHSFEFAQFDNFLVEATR
Procedure: To evaluate the efficacy of cyclodextrins in enhancing the hydrolysis of enzymatic substrates (4-MU substrates) used in NBS assays, DBS extracts were prepared from quality control (QC) dried blood spot samples (i.e., base pool (BP), low (L), medium (M) and high (H) activity samples). The QC samples were obtained from CDC, Atlanta Ga. The base pool (BP) QC sample was prepared from a pool of leukoreduced human red blood cells that was adjusted with serum to a hematocrit of 50%. The High (H) activity QC sample was prepared from pooled cord blood that was adjusted with serum to a hematocrit of 50%. The medium (M) activity QC sample was prepared by using 50% base pool (BP) and 50% high (H) activity sample. The low (L) activity QC sample was prepared by using 95% base pool (BP) and 5% high (H) activity sample. The BP sample is used as a control for hydrolysis non-specific to white blood cell lysosomal enzymes. The DBS extracts were analyzed using on-bench assay protocols for Fabry, Gaucher, Krabbe, and Pompe diseases. For each assay, on-chip reagent formulations were scaled up to bench volumes. Hydroxypropyl-β-cyclodextrin or methyl-β-cyclodextrin reagent stocks (300 mM) were prepared in appropriate assay buffers. […] Fluorescence was read at 360/460 nm at a gain of 75. For each assay, QC samples (BP, L, M and H) were analyzed in duplicate. […]

acid β-D-glucosidase = target: T2, acid β-D-glucosidase (Homo sapiens, UniProt P04062); assay: Gaucher assay on bench, substrate hydrolysis with cyclodextrins, QC DBS extracts; format: biochemical; design: DBS extracts were prepared from quality control (QC) dried blood spot samples; tissue CDC, Atlanta Ga; host or cells: dried blood spot extracts (pooled cord blood / leukoreduced red cells plus serum); settings: for effect on fluorescence signal in the Gaucher assay, lower concentrations: 1, 5, 10, 15, 20, 25 mM, one experiment; for effect on hydrolysis of the 4-MU substrate in the Gaucher assay: 10, 30, 100 mM tested, effect at 10 mM, 20 hrs at 37° C.
T2 sequence (P04062 40-536): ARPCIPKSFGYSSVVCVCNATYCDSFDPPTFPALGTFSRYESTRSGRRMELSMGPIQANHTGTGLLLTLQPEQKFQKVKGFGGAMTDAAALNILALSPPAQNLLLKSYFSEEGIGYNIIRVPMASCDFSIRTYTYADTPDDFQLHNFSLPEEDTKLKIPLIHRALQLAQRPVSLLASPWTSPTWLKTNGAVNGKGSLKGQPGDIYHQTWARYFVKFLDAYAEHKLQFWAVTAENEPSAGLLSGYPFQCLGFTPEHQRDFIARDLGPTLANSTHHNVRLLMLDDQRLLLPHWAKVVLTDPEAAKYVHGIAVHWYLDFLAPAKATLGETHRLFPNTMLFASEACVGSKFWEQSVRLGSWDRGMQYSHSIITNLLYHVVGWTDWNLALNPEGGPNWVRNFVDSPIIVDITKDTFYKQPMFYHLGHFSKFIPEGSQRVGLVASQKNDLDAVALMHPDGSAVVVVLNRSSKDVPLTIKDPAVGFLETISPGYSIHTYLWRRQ
Procedure: To evaluate the efficacy of cyclodextrins in enhancing the hydrolysis of enzymatic substrates (4-MU substrates) used in NBS assays, DBS extracts were prepared from quality control (QC) dried blood spot samples (i.e., base pool (BP), low (L), medium (M) and high (H) activity samples). The QC samples were obtained from CDC, Atlanta Ga. The base pool (BP) QC sample was prepared from a pool of leukoreduced human red blood cells that was adjusted with serum to a hematocrit of 50%. The High (H) activity QC sample was prepared from pooled cord blood that was adjusted with serum to a hematocrit of 50%. The medium (M) activity QC sample was prepared by using 50% base pool (BP) and 50% high (H) activity sample. The low (L) activity QC sample was prepared by using 95% base pool (BP) and 5% high (H) activity sample. The BP sample is used as a control for hydrolysis non-specific to white blood cell lysosomal enzymes. The DBS extracts were analyzed using on-bench assay protocols for Fabry, Gaucher, Krabbe, and Pompe diseases. For each assay, on-chip reagent formulations were scaled up to bench volumes. Hydroxypropyl-β-cyclodextrin or methyl-β-cyclodextrin reagent stocks (300 mM) were prepared in appropriate assay buffers. For each reaction, 10 μL of the appropriate substrate was mixed with 10 μL of DBS extract. After an incubation period (20 hrs at 37° C.), 50 μL of stop buffer (0.2 M NaCO3, pH 10.1) was added to the reaction. Fluorescence was read at 360/460 nm at a gain of 75. For each assay, QC samples (BP, L, M and H) were analyzed in duplicate.
FIGS. 21A and 21B show bar graphs 2100 and 2150 of the effect of hydroxypropyl-β-cyclodextrin and methyl-β-cyclodextrin, respectively, on substrate hydrolysis in a Gaucher assay. The 4-MU substrate in the Gaucher assay was β-D-glucopyranoside. The concentrations of β-cyclodextrins in the reaction mixture (substrate+DBS extract) were 10 mM, 30 mM, and 100 mM.
FIGS. 23A and 23B show bar graphs 2300 and 2350, respectively, of an experimental result of the effect of lower concentrations of hydroxypropyl-β-cyclodextrin and methyl-β-cyclodextrin, respectively, on substrate hydrolysis in a Gaucher assay. The 4-MU substrate in the Gaucher assay was β-D-glucopyranoside. The concentrations of β-cyclodextrins in the reaction mixture (substrate+DBS extract) were 1, 5, 10, 15, 20, and 25 mM. […] The β-cyclodextrin used may be hydroxypropyl-β-cyclodextrin at a concentration from about 5 mM to about 15 mM, or from about 7 mM to about 13 mM, or from about 9 mM to about 11 mM, or from about 9.5 mM to about 11.5 mM.

effect on substrate hydrolysis in a Krabbe assay (Krabbe assay)	effect on fluorescence signal in the Gaucher assay, lower concentrations (acid β-D-glucosidase)	effect on hydrolysis of the 4-MU substrate in the Gaucher assay (acid β-D-glucosidase)	Substance
inhibitory	may affect the fluorescence signal	increase the hydrolysis	hydroxypropyl-β-cyclodextrin
inhibitory	may affect the fluorescence signal	increase the hydrolysis	methyl-β-cyclodextrin
